Several values for one entry are separate records, joined by “and”; a condition that tells them apart may be missing. Identical values can stand only once.
Tests used:
dNCS-1 [1] = target: T1, dNCS-1 (Drosophila melanogaster, UniProt Q9VWX8); assay: Tryptophan emission fluorescence of dNCS-1 at increasing ligand concentrations (apparent Kd); format: binding; details: for Kd: Ca2+ loaded dNCS-1 0.8 µM, pH 7.9, 5% DMSO, 5 °C, fit to 1:1 stoichiometry, three independent experiments
T1 construct: made in house; host or cells: E. coli
T1 sequence (Q9VWX8 1-187): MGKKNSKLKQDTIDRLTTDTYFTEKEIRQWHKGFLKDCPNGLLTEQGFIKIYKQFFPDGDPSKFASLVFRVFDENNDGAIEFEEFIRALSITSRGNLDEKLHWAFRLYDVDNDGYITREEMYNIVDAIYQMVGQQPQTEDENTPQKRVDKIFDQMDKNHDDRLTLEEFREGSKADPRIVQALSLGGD
Experimental: Fluorescence-based experiments with 3a–3e were carried out to estimate their affinity to dNCS-1.
Mean ± SD from three independent experiments. The curves represent the least squares fitting of the experimental data to a 1:1 stoichiometry. To properly compare the different curves, intensities were normalized and represented. […] Input represents 1/10 cell lysates before IP. Quantifications of each lane from four experiments are shown below the blots. Bars represent percentage of NCS-1/ Ric8a binding (mean ± SD) normalized to DMSO. […] Mean ± SD from three independent experiments. […] Then, the percentage of picnotic bodies over the total nuclei was analyzed. Mean ± SD from three independent experiments. Paired two-tailed Student’s test ***P˂0.001; **P < 0.01; *P < 0.05. Source data are provided as a Source Data file. IP immunoprecipitation, WB western blot […]
the length of the pass light (L) is 1cm (see Supplementary Table 3 and Supplementary […]
Fluorescence emission experiments. Tryptophan emission fluorescence of dNCS-1 […]
affinity and calculate the apparent dissociation constant, Kd. Fluorescence measurements were performed by Jobin Yvon Floromax4 spectrofluorimeter equipped […]
5% DMSO at 5 °C. The excitation wavelength was fixed at 295 nm, and the emission spectra range were collected over 300-400 nm.
Then, three independent experiments were performed
Fluorescence intensities were normalized and represented as (I0 − I)/I 0. I stands for the observed fluorescence emission at 345 nm (fluorescence maximum), and I0 is the observed fluorescence emission of the protein itself without any small molecule. The apparent dissociation constant was obtained using a least squares algorithm to fit the experimental data to a 1:1 stoichiometry model.6 The fitting was performed with KaleidaGraph Data Analysis Program. […]
Protein expression and purification. Drosophila and human NCS-1 were over-expressed in E. coli and subsequently purified to homogeneity as previously described.9

dNCS-1 [2] = target: T1, dNCS-1; assay: Protein-directed DCL, HPLC-MS relative peak area with and without dNCS-1; details: for RPA, Blank DCL / RPA, Templated DCL: as fraction of total area; for RPA, Templated DCL: with dNCS-1; for RPA (%) with protein (templated DCL): relative peak area in presence of dNCS-1; for RPA (%) without protein (blank DCL): relative peak area, sum of all peak areas set to 100%; for RPA (%), Blank DCL: sheet Supplementary Figure 10; for RPA (%), Templated DCL: sheet Supplementary Figure 10, with dNCS-1
Experimental: The reversibility of the DCL was evident, since an identical equilibrium distribution to that shown in Fig. 4a was obtained when two different starting points were employed. The observed degree of amplification was 3b > 3e ≥ 3d > 3a. The precise composition of the DCL (with and without dNCS-1), was assessed by measuring the relative peak area (RPA). Indeed, the normalized change of RPA was used to quantify the protein influence in the final outcome (Supplementary Figs. 9, 10 and Supplementary Tables 1, 2 and 3)[28]. […] Note that compounds 3a–3e can exist as E/Z isomers of the C = N bond. […].
Aldehyde 1 (1.2 μL, 50 mM, DMSO), the five acylhydrazides 2a–2e (5 × 3.6 μL, 50 mM, DMSO), p-anisidine (1 μL, 12 M, DMSO) and buffer 20 mM Tris, 0.5 M NaCl and 1 mM CaCl2, 1 mM DTT at pH 7.4 (750 μL) in 3.3 % DMSO. The mixture was stabilized in 5 h at 4 °C. HPLC analysis was performed.
Aldehyde 1 (1.2 μL, 50 mM, DMSO), the five acylhydrazides 2a–2e (5 × 3.6 μL, 50 mM, DMSO), p-anisidine (1 μL, 12 mM, DMSO) and dNCS-1 in buffer 20 mM Tris, 0.5 M NaCl and 1 mM CaCl2, 1 mM DTT at pH 7.4 (66.7 μM, 750 μL, 1 eq.). The experiment is in 3.3% DMSO. The mixture was stabilized for 5 h at 4 °C. Then, dNCS-1 was removed by ultrafiltration using an Amicon Ultra filter (0.5–10 KDa). HPLC analysis was performed and the traces were compared with the blank composition.
Supplementary Figure 9. Relative Peak Area of the DCL with and without dNCS1. Aldehyde
1 (1.2 µL, 50 mM), 2a-e (3.6 µL, 50 mM), catalyst (1 µL, 12 M), dNCS-1:1 [1:1], tris buffer (20
mM, pH 7.4), 1 mM CaCl2, 0.5 M NaCl, 1 mM DTT, T = 4 °C, 2% DM SO. Mean relative peak
area (RPA) of each acylhydrazone of the library in the absence (blank) and presence of dNCS-1.
Error bars indicate standard deviation (SD) over three experiments. The calculation is set by the
sum of all peak areas to 100% and assigning each peak its percentage. Source data are provided
R P A N o rm aliz ed V a riation
Supplementary Figure 10. RPA normalized of variation of DCL with and without dNCS1.
Aldehyde 1 (1.2 µL, 50 mM), 2a-e (3.6 µL, 50 mM), catalyst (1 µL, 12 M), dNCS-1:1 [1:1], tris
buffer (20 mM, pH 7.4), 1 mM CaCl2, 0.5 M NaCl, 1 mM DTT, T = 4 °C, 2% DM SO. Error
bars indicate SD over three experiments. Source data are provided as a Source Data file.

Compound: O=C(Cc1c[nH]c2ccccc12)NN=Cc1ccc([N+](=O)[O-])c(O)c1 (mixture of isomers) [3b]
- Kd (dNCS-1 [1]): 43 ± 6 µM
- Normalized Fluorescence I0-I/I0 (dNCS-1 [1]; ligand 3.2 μM): 0.064
- Normalized Fluorescence I0-I/I0 (dNCS-1 [1]; ligand 6.4 μM): 0.094
- Normalized Fluorescence I0-I/I0 (dNCS-1 [1]; ligand 8 μM): 0.164
- Normalized Fluorescence I0-I/I0 (dNCS-1 [1]; ligand 16 μM): 0.334
- Normalized Fluorescence I0-I/I0 (dNCS-1 [1]; ligand 24 μM): 0.447
- Normalized Fluorescence I0-I/I0 (dNCS-1 [1]; ligand 32 μM): 0.600
- Normalized Fluorescence I0-I/I0 (dNCS-1 [1]; ligand 48 μM): 0.701
- Normalized Fluorescence I0-I/I0 (dNCS-1 [1]; ligand 64 μM): 0.814
- Normalized Fluorescence I0-I/I0 (dNCS-1 [1]; ligand 80 μM): 0.849
- Normalized Fluorescence I0-I/I0 (dNCS-1 [1]; ligand 96 μM): 0.900
- RPA, Blank DCL (dNCS-1 [2]): 0.1921
- RPA, Templated DCL (dNCS-1 [2]): 0.2944
- RPA (%) with protein (templated DCL) (dNCS-1 [2]): 29.4% and 29.4401%
- RPA (%) without protein (blank DCL) (dNCS-1 [2]): 19.2% and 19.208%
- RPA (%), Blank DCL (dNCS-1 [2]): 19.2%
- RPA (%), Templated DCL (dNCS-1 [2]): 29.4%

Compound: O=C(NN=Cc1ccc([N+](=O)[O-])c(O)c1)C(O)c1ccccc1 (mixture of isomers) [3d]
- Kd (dNCS-1 [1]): 61 ± 9 µM
- Normalized Fluorescence I0-I/I0 (dNCS-1 [1]; ligand 3.2 μM): 0.123
- Normalized Fluorescence I0-I/I0 (dNCS-1 [1]; ligand 6.4 μM): 0.086
- Normalized Fluorescence I0-I/I0 (dNCS-1 [1]; ligand 8 μM): 0.187
- Normalized Fluorescence I0-I/I0 (dNCS-1 [1]; ligand 16 μM): 0.280
- Normalized Fluorescence I0-I/I0 (dNCS-1 [1]; ligand 24 μM): 0.401
- Normalized Fluorescence I0-I/I0 (dNCS-1 [1]; ligand 32 μM): 0.424
- Normalized Fluorescence I0-I/I0 (dNCS-1 [1]; ligand 48 μM): 0.549
- Normalized Fluorescence I0-I/I0 (dNCS-1 [1]; ligand 64 μM): 0.700
- Normalized Fluorescence I0-I/I0 (dNCS-1 [1]; ligand 80 μM): 0.766
- Normalized Fluorescence I0-I/I0 (dNCS-1 [1]; ligand 96 μM): 0.802
- RPA, Blank DCL (dNCS-1 [2]): 0.1114
- RPA, Templated DCL (dNCS-1 [2]): 0.0839
- RPA (%) with protein (templated DCL) (dNCS-1 [2]): 8.4% and 8.39%
- RPA (%) without protein (blank DCL) (dNCS-1 [2]): 11.1% and 11.1444%
- RPA (%), Blank DCL (dNCS-1 [2]): 11.1%
- RPA (%), Templated DCL (dNCS-1 [2]): 8.39%

Compound: O=C(N/N=C/c1ccc([N+](=O)[O-])c(O)c1)c1ccco1 [3a]
- Kd (dNCS-1 [1]): 32 ± 2 µM
- Normalized Fluorescence I0-I/I0 (dNCS-1 [1]; ligand 3.2 μM): 0.131
- Normalized Fluorescence I0-I/I0 (dNCS-1 [1]; ligand 6.4 μM): 0.215
- Normalized Fluorescence I0-I/I0 (dNCS-1 [1]; ligand 8 μM): 0.262
- Normalized Fluorescence I0-I/I0 (dNCS-1 [1]; ligand 16 μM): 0.405
- Normalized Fluorescence I0-I/I0 (dNCS-1 [1]; ligand 24 μM): 0.544
- Normalized Fluorescence I0-I/I0 (dNCS-1 [1]; ligand 32 μM): 0.668
- Normalized Fluorescence I0-I/I0 (dNCS-1 [1]; ligand 48 μM): 0.810
- Normalized Fluorescence I0-I/I0 (dNCS-1 [1]; ligand 64 μM): 0.878
- Normalized Fluorescence I0-I/I0 (dNCS-1 [1]; ligand 80 μM): 0.924
- Normalized Fluorescence I0-I/I0 (dNCS-1 [1]; ligand 96 μM): 0.955
- RPA, Blank DCL (dNCS-1 [2]): 0.2727
- RPA, Templated DCL (dNCS-1 [2]): 0.1875
- RPA (%) with protein (templated DCL) (dNCS-1 [2]): 18.8% and 18.7508%
- RPA (%) without protein (blank DCL) (dNCS-1 [2]): 27.3% and 27.2702%
- RPA (%), Blank DCL (dNCS-1 [2]): 27.3%
- RPA (%), Templated DCL (dNCS-1 [2]): 18.8%

Source: paper PMC6595003, “Insights into real-time chemical processes in a calcium sensor protein-directed dynamic library” (Nature Communications, 2019)
